Assay results: patent US9783536B2, “Nitrogen-containing heterocyclic compound or salt thereof” (FUJIFILM Corporation, priority 2013, dated 2017)
Like-named read-outs stand apart in the source and are kept apart here.

Key:
[1] = target: T1, GST fusion human ERK2 protein (Homo sapiens, UniProt P28482); assay: ERK2 enzyme assay (2); assay type: biochemical; settings: ERK2 enzyme assay (2); read-out: ERK2 enzyme inhibitory activity (2)
T1 construct: purchased Carna Biosciences, Inc; host or cells: E. coli expression system
Outline: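 GST-tagged human ERK2 expressed in E. coli (1.25 nmol/L) was preincubated with compound for 15 min at room temperature in pH 7.5 Hepes buffer with MgCl2, DTT and Brij35. Reaction with FL-Peptide 8 (final 4.25 μmol/L) and ATP (final 1 mmol/L) ran 120 min at 25 °C; EDTA stopped it, and phosphorylated peptide was quantified by mobility-shift separation to derive IC50.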

human PI3Kα protein = target: T2, human PI3Kα protein (Homo sapiens, UniProt P42336); assay: PI3Kα enzyme assay (ADP-Glo); assay type: biochemical; settings: read-out: PI3Kα enzyme inhibitory activity
T2 construct: purchased Carna Biosciences, Inc; host or cells: baculovirus expression system
Outline: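 Biotinylated human PI3Kα (baculovirus-expressed, 4.5 nmol/L) pre-incubated 15 min with compound in Tris-HCl pH 7.5, MgCl2, BSA; reaction 60 min at 25° C with 50 μmol/L PIP2 and 100 μmol/L ATP final. ADP quantified by ADP-Glo luminescence; IC50 calculated.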

CHO-K1 cells = assay: CHO cell toxicity test; assay type: cell-based, Chinese hamster; settings: Cricetulus griseus, read-out: IC50 value (concentration at which the number of viable cells was suppressed to 50% or less)
Protocol: In a CHO cell toxicity test, the following was used.
Cell: CHO-K1 cells (derived from Chinese hamster ovary) Test medium: F-12 MEDIUM+FCS (manufactured by Biowest) having a final concentration of 2%
Detection reagent: CELLTITER-GLO™ LUMINESCENT CELL VIABILITY ASSAY (trade name, manufactured by PROMEGA Corporation)
The CHO-K1 cells were seeded in a 96-well microplate for culture at 5,000 cells/well, and cultured in a CO2 incubator (37° C.) for 24 hours. An evaluation compound (final concentration: from 25.00 μmol/L to 0.20 μmol/L, common ratio: […]) was added thereto, followed by culturing for 24 hours, and the number of viable cells was calculated from emission intensity by CELLTITER-GLO™ (trade name, manufactured by PROMEGA Corporation). In the measurement of the emission intensity, VARIOSKAN FLASH (manufactured by Thermo Fisher Scientific Inc.) was used.
Inhibition ratio (%)=100−(A/B)×100
A: Emission intensity in the presence of a test compound
B: Emission intensity in the absence of a test compound

[2] = CHO-K1 cells, 24 hours culture with compound, CellTiter-Glo

T2 sequence (P42336 whole entry): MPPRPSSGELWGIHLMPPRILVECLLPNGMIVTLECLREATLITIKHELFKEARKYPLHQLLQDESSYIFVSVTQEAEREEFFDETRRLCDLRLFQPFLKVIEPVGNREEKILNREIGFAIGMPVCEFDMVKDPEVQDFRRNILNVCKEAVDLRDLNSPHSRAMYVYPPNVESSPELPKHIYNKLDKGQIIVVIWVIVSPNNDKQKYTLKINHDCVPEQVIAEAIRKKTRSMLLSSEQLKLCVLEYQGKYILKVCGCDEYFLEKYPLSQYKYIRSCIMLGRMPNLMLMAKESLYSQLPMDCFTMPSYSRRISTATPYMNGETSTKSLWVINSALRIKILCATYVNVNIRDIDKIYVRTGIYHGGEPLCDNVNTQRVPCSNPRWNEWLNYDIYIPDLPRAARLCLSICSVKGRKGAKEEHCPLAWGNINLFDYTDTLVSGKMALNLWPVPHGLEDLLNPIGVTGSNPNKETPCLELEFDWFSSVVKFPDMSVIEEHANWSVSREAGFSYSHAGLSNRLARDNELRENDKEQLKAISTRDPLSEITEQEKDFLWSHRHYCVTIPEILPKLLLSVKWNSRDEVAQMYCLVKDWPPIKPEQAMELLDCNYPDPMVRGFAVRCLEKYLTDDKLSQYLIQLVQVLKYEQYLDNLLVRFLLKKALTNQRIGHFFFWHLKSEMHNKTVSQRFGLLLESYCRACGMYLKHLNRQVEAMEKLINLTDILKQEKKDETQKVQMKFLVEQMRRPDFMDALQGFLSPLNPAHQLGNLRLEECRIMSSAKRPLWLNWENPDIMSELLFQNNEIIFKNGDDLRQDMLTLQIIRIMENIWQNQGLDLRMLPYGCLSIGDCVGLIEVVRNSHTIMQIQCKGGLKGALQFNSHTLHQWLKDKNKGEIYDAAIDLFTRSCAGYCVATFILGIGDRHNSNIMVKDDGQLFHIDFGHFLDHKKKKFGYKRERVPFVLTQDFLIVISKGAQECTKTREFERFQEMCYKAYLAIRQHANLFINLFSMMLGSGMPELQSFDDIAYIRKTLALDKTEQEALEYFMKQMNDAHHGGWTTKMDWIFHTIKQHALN
T2 sequence (P27986 whole entry partner): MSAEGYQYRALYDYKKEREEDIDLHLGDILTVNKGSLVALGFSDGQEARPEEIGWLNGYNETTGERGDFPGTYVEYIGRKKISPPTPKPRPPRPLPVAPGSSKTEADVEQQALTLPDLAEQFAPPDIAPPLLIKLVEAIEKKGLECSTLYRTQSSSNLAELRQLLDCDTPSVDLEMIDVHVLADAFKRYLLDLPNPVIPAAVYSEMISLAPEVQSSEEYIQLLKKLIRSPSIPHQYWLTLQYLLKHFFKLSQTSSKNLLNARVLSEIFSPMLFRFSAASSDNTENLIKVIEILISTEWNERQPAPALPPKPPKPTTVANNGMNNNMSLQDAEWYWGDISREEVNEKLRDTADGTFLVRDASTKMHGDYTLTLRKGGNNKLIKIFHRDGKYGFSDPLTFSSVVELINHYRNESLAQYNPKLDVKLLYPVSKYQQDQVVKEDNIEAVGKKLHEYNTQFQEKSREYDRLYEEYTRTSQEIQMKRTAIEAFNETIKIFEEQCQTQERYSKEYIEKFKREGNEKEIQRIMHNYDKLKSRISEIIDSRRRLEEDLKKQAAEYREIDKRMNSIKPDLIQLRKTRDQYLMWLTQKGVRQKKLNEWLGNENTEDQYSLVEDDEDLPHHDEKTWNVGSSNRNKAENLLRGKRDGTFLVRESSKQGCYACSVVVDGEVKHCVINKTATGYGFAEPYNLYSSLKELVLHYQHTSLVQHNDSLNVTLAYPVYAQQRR
T1 sequence (P28482 whole entry, the tested form may be a part): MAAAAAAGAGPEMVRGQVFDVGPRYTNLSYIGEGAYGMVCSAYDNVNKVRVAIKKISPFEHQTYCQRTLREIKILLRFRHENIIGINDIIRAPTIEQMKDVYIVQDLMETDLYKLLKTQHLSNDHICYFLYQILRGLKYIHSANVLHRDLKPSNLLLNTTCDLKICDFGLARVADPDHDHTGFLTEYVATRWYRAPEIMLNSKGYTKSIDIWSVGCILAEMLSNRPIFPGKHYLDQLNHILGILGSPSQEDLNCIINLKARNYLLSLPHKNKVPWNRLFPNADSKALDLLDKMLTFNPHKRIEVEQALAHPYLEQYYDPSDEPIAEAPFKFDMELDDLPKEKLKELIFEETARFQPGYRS

Compound | IC50 [1] [µM] | IC50 (human PI3Kα protein) [µM] | IC50 (CHO-K1 cells; [2]) [µM] | IC50 (CHO-K1 cells; CHO-K1, 24 h) [µM]
CC(C)c1cnnc(Nc2ccc3ncc(-c4cnn([C@@H]5CCN(C)C5)c4)cc3n2)c1 [Example 0493] | < 1 | < 1 | ≥ 25 | –
CC(C)c1cnnc(Nc2ccc3ncc(-c4cn(C)nc4-c4ccc(C#N)nc4)cc3n2)c1 [Example 0455] | < 1 | < 1 | ≥ 25 | –
CC(C)c1cnnc(Nc2ccc3ncc(-c4cn(C)nc4CC4CCOCC4)cc3n2)c1 [Example 0773] | < 1 | < 1 | ≥ 25 | –
CC(C)c1cnnc(Nc2ccc3ncc(-c4cn(C)nc4C(F)F)cc3n2)c1 [Example 0635] | < 1 | < 1 | ≥ 25 | –
CC(C)c1cnnc(Nc2ccc3ncc(-c4cnn(CCC5CCN(C)CC5)c4)cc3n2)c1 [Example 0487, N-(5-isopropylpyridazin-3-yl)-7-(1-(2-(1-methylpiperidin-4-yl)ethyl)-1H-pyrazol-4-yl)-1,5-naphthyridine-2-amine] | < 1 | < 1 | ≥ 25 | –
CCc1nn(C)cc1-c1cnc2ccc(Nc3cc(C(C)C)cnn3)nc2c1 [Example 0761] | < 1 | < 1 | ≥ 25 | –
CC(C)c1cnnc(Nc2ccc3ncc(-c4cnn(CCCN5CC(C(=O)N(C)C)C5)c4)cc3n2)c1 [Example 0688] | < 1 | < 1 | ≥ 25 | –
Cn1cc(-c2cnc3ccc(Nc4cc(C5CCCC5)cnn4)nc3c2)c(CF)n1 [Example 0631, N-(5-cyclopentylpyridazin-3-yl)-7-(3-(fluoromethyl)-1-methyl-1H-pyrazol-4-yl)-1,5-naphthyridine-2-amine] | < 1 | < 1 | ≥ 25 | –
CC(C)c1cnnc(Nc2ccc3ncc(-c4cnn([C@H]5CCN(C)C5)c4)cc3n2)c1 [Example 0492] | < 1 | < 1 | ≥ 25 | –
CC(C)c1cnnc(Nc2ccc3ncc(-c4cnn(C[C@@H]5CCC(=O)N5C)c4)cc3n2)c1 [Example 0557, (S)-5-((4-(6-((5-isopropylpyridazin-3-yl)amino)-1,5-naphthyridin-3-yl)-1H-pyrazol-1-yl)methyl)-1-methylpyrrolidin-2-one] | < 1 | < 1 | ≥ 25 | –
CC(C)c1cnnc(Nc2ccc3ncc(-c4cn(C)nc4-c4ccncc4)cc3n2)c1 [Example 0552] | < 1 | < 1 | ≥ 25 | –
CC(C)c1cnnc(Nc2ccc3ncc(-c4cn(C)nc4CC4CC4)cc3n2)c1 [Example 0781] | < 1 | < 1 | – | ≥ 25
CCN(CC)c1cnnc(Nc2ccc3ncc(-c4cnn(C)c4)cc3n2)c1 [Example 0517] | < 1 | < 1 | ≥ 25 | –
CC(C)c1cnnc(Nc2ccc3ncc(-c4cnn(CCCN5CCOCC5=O)c4)cc3n2)c1 [Example 0424] | < 1 | < 1 | – | ≥ 25
CC(C)c1cnnc(Nc2ccc3ncc(-c4c[nH]nc4-c4cccnc4)cc3n2)c1 [Example 0545] | < 1 | < 1 | ≥ 25 | –
CC(C)c1cnnc(Nc2ccc3ncc(-c4cnn(CC(F)CN5CCOCC5)c4)cc3n2)c1 (stereo not drawn) [Example 0733] | < 1 | < 1 | ≥ 25 | –
CC(C)c1cnnc(Nc2ccc3ncc(-c4cn(C)nc4-c4cncs4)cc3n2)c1 [Example 0583] | < 1 | < 1 | – | ≥ 25
COCCN(C)CCCn1cc(-c2cnc3ccc(Nc4cc(C(C)C)cnn4)nc3c2)cn1 [Example 0659] | < 1 | < 1 | ≥ 25 | –

Compound | IC50 [1] [µM] | IC50 (human PI3Kα protein) [µM] | IC50 (CHO-K1 cells; [2]) [µM] | IC50 (CHO-K1 cells; CHO-K1, 24 h) [µM]
CC(=O)c1ccc(Cn2cc(-c3cnc4ccc(Nc5cc(C(C)C)cnn5)nc4c3)cn2)cc1 [Example 0795] | < 1 | < 1 | ≥ 25 | –
CC(C)c1cnnc(Nc2ccc3ncc(-c4cnn(CCCN5CC(F)C5)c4)cc3n2)c1 [Example 0694, 7-(1-(3-(3-Fluoroazetidin-1-yl)propyl)-1H-pyrazol-4-yl)-N-(5-isopropylpyridazin-3-yl)-1,5-naphthyridine-2-amine] | < 1 | < 1 | ≥ 25 | –
CC(C)c1cnnc(Nc2ccc3ncc(-c4cnn(C5CCN(S(C)(=O)=O)CC5)c4)cc3n2)c1 [Example 0479] | < 1 | < 1 | ≥ 25 | –
CC(C)c1cnnc(Nc2ccc3ncc(-c4cnn(CC5CN(S(C)(=O)=O)C5)c4)cc3n2)c1 [Example 0572, N-(5-isopropylpyridazin-3-yl)-7-(1-((1-(methylsulfonyl)azetidin-3-yl)methyl)-1H-pyrazol-4-yl)-1,5-naphthyridine-2-amine] | < 1 | < 1 | ≥ 25 | –
CC(C)c1cnnc(Nc2ccc3ncc(-c4cnn(CCCN5CC6CCC(C5)O6)c4)cc3n2)c1 [Example 0653, 7-(1-(3-(8-Oxa-3-azabicyclo[3.2.1]octan-3-yl)propyl)-1H-pyrazol-4-yl)-N-(5-isopropylpyridazin-3-yl)-1,5-naphthyridine-2-amine] | < 1 | < 1 | ≥ 25 | –
CCN(c1cnnc(Nc2ccc3ncc(-c4cnn(C)c4)cc3n2)c1)C(C)C [Example 0500] | < 1 | < 1 | ≥ 25 | –
CC(C)c1cnnc(Nc2ccc3ncc(-c4cnn(CCCN5C[C@@H](C)N(C)[C@@H](C)C5)c4)cc3n2)c1 [Example 0426, N-(5-isopropylpyridazin-3-yl)-7-(1-(3-((3S,5R)-3,4,5-trimethylpiperazin-1-yl)propyl)-1H-pyrazol-4-yl)-1,5-naphthyridine-2-amine] | < 1 | < 1 | ≥ 25 | –
CC(C)c1cnnc(Nc2ccc3ncc(-c4cnn(CCCN5CCOC(CO)C5)c4)cc3n2)c1 (stereo not drawn) [Example 0678] | < 1 | < 1 | ≥ 25 | –
CNC(=O)C1CN(CCCn2cc(-c3cnc4ccc(Nc5cc(C(C)C)cnn5)nc4c3)cn2)C1 [Example 0687, 1-(3-(4-(6-((5-Isopropylpyridazin-3-yl)amino)-1,5-naphthyridin-3-yl)-1H-pyrazol-1-yl)propyl)-N-methylazetidine-3-carboxamide] | < 1 | < 1 | ≥ 25 | –
CCc1cnnc(Nc2ccc3ncc(-c4cn(C)nc4C)cc3n2)c1 [Example 0756, 7-(1,3-Dimethyl-1H-pyrazol-4-yl)-N-(5-ethylpyridazin-3-yl)-1,5-naphthyridine-2-amine] | < 1 | < 1 | ≥ 25 | –
CC(C)c1cnnc(Nc2ccc3ncc(-n4ccnc4)cc3n2)c1 [Example 0510, 7-(1H-imidazol-1-yl)-N-(5-isopropylpyridazin-3-yl)-1,5-naphthyridine-2-amine] | < 1 | 1 to 10 | ≥ 25 | –
CC(C)c1cnnc(Nc2ccc3ncc(-c4cnn(CCCN5C6CCC5COC6)c4)cc3n2)c1 [Example 0651] | < 1 | < 1 | ≥ 25 | –
FC(F)(F)Cn1cc(-c2cnc3ccc(Nc4cc(C5CC5)cnn4)nc3c2)cn1 [Example 0465, N-(5-cyclopropylpyridazin-3-yl)-7-(1-(2,2,2-trifluoroethyl)-1H-pyrazol-4-yl)-1,5-naphthyridine-2-amine] | < 1 | < 1 | ≥ 25 | –
Cc1ncccc1-c1nn(C)cc1-c1cnc2ccc(Nc3cc(C(C)C)cnn3)nc2c1 [Example 0737] | < 1 | < 1 | ≥ 25 | –
CC(=O)N1CC(n2cc(-c3cnc4ccc(Nc5cc(C(C)C)cnn5)nc4c3)cn2)C1 [Example 0443] | < 1 | < 1 | ≥ 25 | –
CC(C)c1cnnc(Nc2ccc3ncc(-c4cnn(CCCN5CCO[C@H](C)C5)c4)cc3n2)c1 [Example 0645] | < 1 | < 1 | ≥ 25 | –
Cn1cc(-c2cnc3ccc(Nc4cc(C5CC5)cnn4)nc3c2)c(-c2cccnc2)n1 [Example 0573, N-(5-cyclopropylpyridazin-3-yl)-7-(1-methyl-3-(pyridin-3-yl)-1H-pyrazol-4-yl)-1,5-naphthyridine-2-amine] | < 1 | < 1 | ≥ 25 | –
